Data: patent US11458200B2, “Constructs, agents, and methods for facilitated ablation of cardiac tissue” (priority 2016, dated 2022)
“Also recorded” adds a separate entry of the source.

Experiments:
epicardium = assay: Open-chest rodent survival model of epicardial RF ablation after IV quercetin; assay type: in vivo; conditions: for Lesion Depth: 10 mg/kg
Protocol: Using an open-chest rodent survival model and a custom-made catheter, RF was applied to the epicardium at 3 W for 20 seconds after infusion of a HSP inhibitor, intravenous quercetin (n=20, 10 mg/kg), or control (n=20). Animals were sacrificed at 1 (n=10 each) and 24 hours (n=10 each) after ablation. RFA lesions were stained and analyzed under microscopy.

adenocarcinoma tumor = conditions: combined quercetin and RF energy; cited from earlier work
myocardium = conditions: porcine model; cited from earlier work
[1] = 24 hours after RFA, 3 W for 20 seconds, IV 10 mg/kg, N 10

Q: For `O=c1c(O)c(-c2ccc(O)c(O)c2)oc2cc(O)cc(O)c12` [Quercetin, 3,3′,4′,5,7-pentahydroxyflavone], which “ablation lesions analyzed at 1 hour after RFA” value (epicardium; 1 hour after RFA, IV 10 mg/kg) is on record?
A: did not acutely result in larger ablation lesions

Q: And the Volume (epicardium; [1])?
A: 37.6 ± 10.5 µL

Q: What about the “Lesion Depth” value (epicardium; [1]) of the same compound?
A: 1.8 ± 0.3 mm

Q: What about the “Lesion Depth” value (epicardium; 24 hours after RFA, 3 W for 20 seconds, IV 10 mg/kg, N 10, listed as quercetin) of the same compound?
A: 1.8±0.3 mm

Q: What about the “lesion volumes” value (epicardium; 24 hours after ablation, vs 25.7±8.6 control, p=0.01) of the same compound?
A: 37.6 ± 10.5 µL

Q: What about the “adverse events related to HSP inhibition” value (epicardium; IV 10 mg/kg) of the same compound?
A: No adverse events

Q: What about the “microscopy of lesions compared to controls” value (epicardium; in vivo) of the same compound?
A: larger necrotic cores and border zones

Q: What about the HSP expression (adenocarcinoma tumor) of the same compound?
A: decreased HSP expression

Q: What about the apoptosis (adenocarcinoma tumor) of the same compound?
A: increased apoptosis

Q: And the tumor destruction (adenocarcinoma tumor)?
A: larger tumor destruction

Q: For `[Gd]` [gadolinium], which “ablation lesion sizes after in vivo injection” value (myocardium) is on record?
A: increased lesion sizes; also recorded: larger lesions
